Experimental data reported in the supplement of paper PMC10307832.

How the values were obtained:
Assay in all cases: relative viability (nuclei count vs DMSO), 5 days (fraction); higher = more cells survive
NCI-H322M = tested on: NCI-H322M
How it was run: (§1)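 Cells from lung cancer lines were seeded into 1536-well plates and, one day later, dosed by pin tool. Treatments were either a single drug or a fixed dose of an anchor drug with five library-drug doses (not always all listed) in √10 steps. After 5 days, nuclei were stained in a one-step fixation (final 0.05% Triton X-100, 1% formaldehyde, 1 ug/ml Hoechst) and counted on 4× images, and relative viability is the treated-to-vehicle nuclei ratio, as the median of duplicate plates.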

SW 1573 = tested on: SW 1573
How it was run: as §1

NCI-H1355 = tested on: NCI-H1355
How it was run: as §1

PC-14 = tested on: PC-14
How it was run: as §1

HCC-15 = tested on: HCC-15
How it was run: as §1

NCI-H2342 = tested on: NCI-H2342
How it was run: as §1

NCI-H2405 = tested on: NCI-H2405
How it was run: as §1

COR-L23 = tested on: COR-L23
How it was run: as §1

PC-3 [JPC-3] = tested on: PC-3 [JPC-3]
How it was run: as §1

ABC-1 = tested on: ABC-1
How it was run: as §1

EKVX = tested on: EKVX
How it was run: as §1

NCI-H661 = tested on: NCI-H661
How it was run: as §1

NCI-H2228 = tested on: NCI-H2228
How it was run: as §1

NCI-H1563 = tested on: NCI-H1563
How it was run: as §1

NCI-H1650 = tested on: NCI-H1650
How it was run: as §1

H3255 = tested on: H3255
How it was run: as §1

NCI-H1437 = tested on: NCI-H1437
How it was run: as §1

RERF-LC-KJ = tested on: RERF-LC-KJ
How it was run: as §1

LK-2 = tested on: LK-2
How it was run: as §1

HCC-827 = tested on: HCC-827
How it was run: as §1

CAL-12T = tested on: CAL-12T
How it was run: as §1

NCI-H520 = tested on: NCI-H520
How it was run: as §1

NCI-H1734 = tested on: NCI-H1734
How it was run: as §1

SMILES: Oc1nc(-c2ccc(C(F)(F)F)cc2)nc2c1CSCC2 [XAV939] + COc1cc2c(Oc3ccc(NC(=O)C4(C(=O)Nc5ccc(F)cc5)CC4)cc3F)ccnc2cc1OCCCN1CCOCC1 [Foretinib] (partner 0.25 µM)
- relative viability (NCI-H322M; first compound 0.08 µM): 1.11
- relative viability (NCI-H322M; first compound 0.253 µM): 0.921
- relative viability (NCI-H322M; first compound 0.8 µM): 0.778
- relative viability (NCI-H322M; first compound 2.53 µM): 0.609
- relative viability (SW 1573; first compound 0.08 µM): 1.2
- relative viability (SW 1573; first compound 0.253 µM): 0.816
- relative viability (SW 1573; first compound 0.8 µM): 0.732
- relative viability (SW 1573; first compound 2.53 µM): 0.788
- relative viability (NCI-H1355; first compound 0.08 µM): 0.946
- relative viability (NCI-H1355; first compound 0.253 µM): 0.839
- relative viability (NCI-H1355; first compound 0.8 µM): 0.786
- relative viability (NCI-H1355; first compound 2.53 µM): 0.619
- relative viability (PC-14; first compound 0.08 µM): 0.945
- relative viability (PC-14; first compound 0.253 µM): 0.869
- relative viability (PC-14; first compound 0.8 µM): 0.885
- relative viability (PC-14; first compound 2.53 µM): 0.905
- relative viability (HCC-15; first compound 0.08 µM): 1.2
- relative viability (HCC-15; first compound 0.253 µM): 0.984
- relative viability (HCC-15; first compound 0.8 µM): 1.05
- relative viability (HCC-15; first compound 2.53 µM): 0.988
- relative viability (NCI-H2342; first compound 0.08 µM): 1.08
- relative viability (NCI-H2342; first compound 0.253 µM): 0.936
- relative viability (NCI-H2342; first compound 0.8 µM): 0.932
- relative viability (NCI-H2342; first compound 2.53 µM): 0.529
- relative viability (NCI-H2405; first compound 0.08 µM): 0.99
- relative viability (NCI-H2405; first compound 0.253 µM): 1.01
- relative viability (NCI-H2405; first compound 0.8 µM): 1.03
- relative viability (NCI-H2405; first compound 2.53 µM): 1.01
- relative viability (COR-L23; first compound 0.08 µM): 1.13
- relative viability (COR-L23; first compound 0.253 µM): 0.96
- relative viability (COR-L23; first compound 0.8 µM): 0.948
- relative viability (COR-L23; first compound 2.53 µM): 0.903
- relative viability (PC-3 [JPC-3]; first compound 0.08 µM): 1.03
- relative viability (PC-3 [JPC-3]; first compound 0.253 µM): 0.854
- relative viability (PC-3 [JPC-3]; first compound 0.8 µM): 1.02
- relative viability (PC-3 [JPC-3]; first compound 2.53 µM): 0.951
- relative viability (ABC-1; first compound 0.08 µM): 1.16
- relative viability (ABC-1; first compound 0.253 µM): 0.732
- relative viability (ABC-1; first compound 0.8 µM): 0.935
- relative viability (ABC-1; first compound 2.53 µM): 0.635
- relative viability (EKVX; first compound 0.08 µM): 0.876
- relative viability (EKVX; first compound 0.253 µM): 0.628
- relative viability (EKVX; first compound 0.8 µM): 0.675
- relative viability (EKVX; first compound 2.53 µM): 0.793
- relative viability (NCI-H661; first compound 0.08 µM): 1.01
- relative viability (NCI-H661; first compound 0.253 µM): 0.991
- relative viability (NCI-H661; first compound 0.8 µM): 0.993
- relative viability (NCI-H661; first compound 2.53 µM): 0.929
- relative viability (NCI-H2228; first compound 0.08 µM): 0.98
- relative viability (NCI-H2228; first compound 0.253 µM): 0.874
- relative viability (NCI-H2228; first compound 0.8 µM): 0.91
- relative viability (NCI-H2228; first compound 2.53 µM): 0.847
- relative viability (NCI-H1563; first compound 0.08 µM): 1.02
- relative viability (NCI-H1563; first compound 0.253 µM): 0.905
- relative viability (NCI-H1563; first compound 0.8 µM): 0.831
- relative viability (NCI-H1563; first compound 2.53 µM): 0.678
- relative viability (NCI-H1650; first compound 0.08 µM): 1.16
- relative viability (NCI-H1650; first compound 0.253 µM): 1.25
- relative viability (NCI-H1650; first compound 0.8 µM): 1.09
- relative viability (NCI-H1650; first compound 2.53 µM): 0.625
- relative viability (H3255; first compound 0.08 µM): 0.845
- relative viability (H3255; first compound 0.253 µM): 0.825
- relative viability (H3255; first compound 0.8 µM): 0.803
- relative viability (H3255; first compound 2.53 µM): 0.851
- relative viability (NCI-H1437; first compound 0.08 µM): 1.3
- relative viability (NCI-H1437; first compound 0.253 µM): 1.18
- relative viability (NCI-H1437; first compound 0.8 µM): 1.21
- relative viability (NCI-H1437; first compound 2.53 µM): 0.989
- relative viability (RERF-LC-KJ; first compound 0.08 µM): 0.781
- relative viability (RERF-LC-KJ; first compound 0.253 µM): 0.738
- relative viability (RERF-LC-KJ; first compound 0.8 µM): 0.792
- relative viability (RERF-LC-KJ; first compound 2.53 µM): 0.681
- relative viability (LK-2; first compound 0.08 µM): 1.96
- relative viability (LK-2; first compound 0.253 µM): 1.19
- relative viability (LK-2; first compound 0.8 µM): 1.08
- relative viability (LK-2; first compound 2.53 µM): 1.13
- relative viability (HCC-827; first compound 0.08 µM): 1.11
- relative viability (HCC-827; first compound 0.253 µM): 0.996
- relative viability (HCC-827; first compound 0.8 µM): 1.06
- relative viability (HCC-827; first compound 2.53 µM): 0.989
- relative viability (CAL-12T; first compound 0.08 µM): 1.06
- relative viability (CAL-12T; first compound 0.253 µM): 1.06
- relative viability (CAL-12T; first compound 0.8 µM): 1.15
- relative viability (CAL-12T; first compound 2.53 µM): 1.09
- relative viability (NCI-H520; first compound 0.08 µM): 0.781
- relative viability (NCI-H520; first compound 0.253 µM): 0.694
- relative viability (NCI-H520; first compound 0.8 µM): 0.677
- relative viability (NCI-H520; first compound 2.53 µM): 0.626
- relative viability (NCI-H1734; first compound 0.08 µM): 0.953
- relative viability (NCI-H1734; first compound 0.253 µM): 0.784
- relative viability (NCI-H1734; first compound 0.8 µM): 0.913
- relative viability (NCI-H1734; first compound 2.53 µM): 0.829
